The values that follow come from patent US10994015B2, “EGFR proteolysis targeting chimeric molecules and associated methods of use” (Arvinas Operations, Inc., priority 2016, dated 2021).

As a reminder, the IC50 is the concentration at which inhibition is half-maximal.

The target in test [1] is EGFR WT (Homo sapiens (Human), UniProt P00533). Briefly: TR-FRET assay for ERBB kinases. Format: biochemical. Particulars: geometric mean if measured more than once. Put shortly:
(§1)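 Three-fold DMSO dilution series of each compound is diluted 10-fold into HEPES buffer (pH 7.5, NaCl, MgCl2, DTT, Pluronic). Enzyme is added for a 10 min pre-incubation. ATP/peptide mix (3 mM ATP, 30 uM substrate as added) starts a 10 min room-temperature reaction, halted with EDTA and Tb antibody.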
On the technique in general: In TR-FRET formats the signal depends on donor and acceptor labels being close together.

The target in test [2] is EGFR L858R/T790M (Homo sapiens (Human), UniProt P00533, L858R/T790M). Briefly: TR-FRET assay for ERBB kinases. Format: biochemical. Particulars: geometric mean if measured more than once. The essentials: as §1
The target in test [3] is EGFR L858R/T790M/C797S (Homo sapiens (Human), UniProt P00533, C797S/L858R/T790M). In words: TR-FRET assay for ERBB kinases. Format: biochemical. Particulars: geometric mean if measured more than once. Put shortly:
as §1

The target in test [4] is HER2 InsYVMA (Homo sapiens (Human), UniProt P04626, INS775YVMA). Briefly: TR-FRET assay for ERBB kinases. Format: biochemical. Particulars: geometric mean if measured more than once. The procedure:
TR-FRET Assay for ERBB Kinases
All compounds and PROTACs were serially diluted in three-fold increments using 100% DMSO, followed by an intermediate 10-fold dilution using Buffer A (50 mM HEPES, pH 7.5, 50 mM NaCl, 10 mM MgCl2, 1 mM DTT, and 0.1% Pluronic F-68). Two microliters of serially diluted compound or PROTAC were then transferred to black 384-well Proxiplates (PerkinElmer, #6008260) using an Integra Viaflo96. Next, 10 uL of protein kinase in Buffer A was added to each well of the assay plate and pre-incubated with compound for 10 minutes. Kinase reactions were then initiated by addition of 5 uL substrate mix containing 3 mM ATP and 30 uM fluorescein-labeled Poly-GluTyr (Thermo Fisher, #PV3610) in Buffer A and allowed to proceed for 10 minutes at room temperature. Reactions were quenched by addition of a 5 uL mixture containing 5 nM LanthaScreen® Tb-pY20 Antibody (Thermo Fisher, #PV3552) and 40 mM EDTA in Buffer A. Assay plates were then read using a Synergy2 (Biotek Instruments, Winooski, Vt.) via excitation thru a 340/20 nm bandpass filter and emission collected thru 490/10 nm (donor) and 520/25 nm (acceptor) bandpass filters. The final kinase concentrations used for each 15 uL reaction were as follows: 0.2 nM EGFR Exon20NPG (SignalChem, #E10-132GG), 0.1 nM wild type EGFR (BPS Bioscience, #40187), 0.3 nM EGFR L858R/T790M/C797S (BPS Bioscience, #40351), 0.1 nM EGFR L858R (BPS Bioscience, #40189), 0.4 nM L858R/T790M (BPS Bioscience, #40350), InM EGFR Dell9 (SignalChem, #E10-122JG), 10 nM EGFR Dell9 T790M (SignalChem, #E10-122KG), 0.3 nM Her2 (BPS Bioscience, #40230), 15 nM Her2 InsYVMA (SignalChem, #E27-13BG).

The target in test [5] is EGFR L858R/T790M double mutant (H1975) (Homo sapiens (Human), UniProt P00533, L858R/T790M). Briefly: EGFR protein degradation assay (Western blot). Particulars: 72 hours, 300 nM to 10 nM. Format: cell-based. Put shortly: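 EGFR protein levels were measured by immunoblotting. Lysate protein was quantified by BCA, and 10 μg per sample was separated by SDS/PAGE at 165V for 2 hours and transferred to PVDF. Membranes were blocked in TBS-T with 5% milk for 1 hour, probed overnight at 4° C with EGFR and tubulin antibodies, then secondary antibody for 1 hour, and detected by ECL on a Chemidoc.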
(In general: In western blotting, separated proteins are transferred to a membrane and probed.)

Test [6] has as its target EGFR Exon20NPG (Homo sapiens (Human), UniProt P00533, INS770NPG). In words: TR-FRET assay for ERBB kinases. Format: biochemical. Particulars: geometric mean if measured more than once. The essentials:
(§2)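 Phosphorylation of fluorescein-labeled poly-GluTyr read as TR-FRET using Tb-pY20 antibody after EDTA stop, with 340 nm excitation. Kinase reaction ran 10 min at room temperature following 10 min compound pre-incubation; substrate mix held 3 mM ATP and 30 µM peptide before addition. Buffer was HEPES pH 7.5.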

Test [7] addresses EGFR L858R (Homo sapiens (Human), UniProt P00533, L858R). Briefly: TR-FRET assay for ERBB kinases. Format: biochemical. Particulars: geometric mean if measured more than once. The essentials:
as §2

For test [8], the target named is HER2WT (Homo sapiens (Human), UniProt P04626). In words: TR-FRET assay for ERBB kinases. Format: biochemical. Particulars: geometric mean if measured more than once. Put shortly: as §2
Chain of HER2WT (P04626 23-1255): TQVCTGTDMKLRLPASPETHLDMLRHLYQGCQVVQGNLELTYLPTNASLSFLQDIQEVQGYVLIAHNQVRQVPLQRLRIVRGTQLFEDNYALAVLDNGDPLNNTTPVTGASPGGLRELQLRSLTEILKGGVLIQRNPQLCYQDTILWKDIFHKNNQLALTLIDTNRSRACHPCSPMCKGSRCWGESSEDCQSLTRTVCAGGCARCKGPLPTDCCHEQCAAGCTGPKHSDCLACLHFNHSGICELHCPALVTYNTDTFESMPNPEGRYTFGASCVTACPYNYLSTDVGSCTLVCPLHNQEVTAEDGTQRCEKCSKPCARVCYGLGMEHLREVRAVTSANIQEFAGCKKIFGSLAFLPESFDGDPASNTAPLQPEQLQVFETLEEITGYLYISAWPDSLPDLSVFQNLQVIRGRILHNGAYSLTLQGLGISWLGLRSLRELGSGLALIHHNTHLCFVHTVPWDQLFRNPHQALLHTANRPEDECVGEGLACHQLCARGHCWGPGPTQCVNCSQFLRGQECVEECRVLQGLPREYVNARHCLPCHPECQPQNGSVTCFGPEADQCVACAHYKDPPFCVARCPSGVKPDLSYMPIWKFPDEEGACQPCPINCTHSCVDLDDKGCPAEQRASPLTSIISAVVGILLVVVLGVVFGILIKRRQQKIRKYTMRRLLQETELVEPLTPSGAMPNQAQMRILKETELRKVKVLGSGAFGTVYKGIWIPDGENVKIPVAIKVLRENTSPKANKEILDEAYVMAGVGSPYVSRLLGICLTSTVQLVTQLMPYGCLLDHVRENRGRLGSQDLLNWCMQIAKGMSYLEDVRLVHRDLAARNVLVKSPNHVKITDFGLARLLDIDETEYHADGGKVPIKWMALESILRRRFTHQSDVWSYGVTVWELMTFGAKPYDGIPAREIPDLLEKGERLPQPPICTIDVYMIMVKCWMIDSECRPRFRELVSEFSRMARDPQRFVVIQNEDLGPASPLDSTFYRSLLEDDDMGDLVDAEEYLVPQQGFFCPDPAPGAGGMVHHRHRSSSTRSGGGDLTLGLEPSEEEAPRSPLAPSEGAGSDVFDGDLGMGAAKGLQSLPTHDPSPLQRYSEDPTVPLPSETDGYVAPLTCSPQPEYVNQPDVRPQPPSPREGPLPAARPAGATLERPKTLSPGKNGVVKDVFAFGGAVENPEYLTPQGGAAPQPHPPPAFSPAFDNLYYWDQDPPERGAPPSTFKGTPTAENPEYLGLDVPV
The target of test [9] is EGFR Δ19/746/750 T790M (Homo sapiens (Human), UniProt P00533, DEL746-750/T790M). Briefly: TR-FRET assay for ERBB kinases. Format: biochemical. Particulars: geometric mean if measured more than once. Put shortly: as §2
For test [10], the target named is EGFR Δ19/746/750 (Homo sapiens (Human), UniProt P00533, DEL746-750). In words: TR-FRET assay for ERBB kinases. Format: biochemical. Particulars: geometric mean if measured more than once. Put shortly:
as §2

For test [11], the target named is EGFR-wt (MDA-MB-231 or MCF7 or A549 or OVCAR8) (Homo sapiens (Human), UniProt P00533). In words: EGFR protein degradation assay (Western blot). Format: cell-based. Particulars: 72 hours, 300 nM to 10 nM. Put shortly:
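EGFR degradation was assessed by Western blot. Cells expressing the appropriate EGFR were seeded in 6-well plates (300,000 cells per well) and adhered overnight. Media was removed, cells were washed with cold phosphate-buffered saline, scraped into 400 μl Cell Signaling lysis buffer plus protease inhibitor cocktail, and spun once at 10 000 rpm for 10 minutes. After BCA quantification, loading buffer and reducing agent were added. Gels loaded with 10 μg protein ran at 165V for 2 hours, and bands were visualized by chemiluminescence.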

Test [12] addresses EGFR-Δ19 (HCC827) (Homo sapiens (Human), UniProt P00533, DEL746-750). Briefly: EGFR protein degradation assay (Western blot). Format: cell-based. Particulars: 72 hours, 300 nM to 10 nM.
For test [13], the target named is EGFR Exon 20 ASV (HeLa*) (Homo sapiens (Human), UniProt P00533, DUP767-769). In words: EGFR protein degradation assay (Western blot). Particulars: 72 hours, 300 nM to 10 nM. Format: cell-based.
Test [14] concerns the target HER3 (Homo sapiens (Human), UniProt P21860). In words: TR-FRET assay for ERBB kinases. Format: biochemical. Particulars: geometric mean if measured more than once.

Chain of HER2 InsYVMA (P04626 other isoform, or with tags, fused parts or gaps del 1-675/ins YVMA behind 775 limits assumed): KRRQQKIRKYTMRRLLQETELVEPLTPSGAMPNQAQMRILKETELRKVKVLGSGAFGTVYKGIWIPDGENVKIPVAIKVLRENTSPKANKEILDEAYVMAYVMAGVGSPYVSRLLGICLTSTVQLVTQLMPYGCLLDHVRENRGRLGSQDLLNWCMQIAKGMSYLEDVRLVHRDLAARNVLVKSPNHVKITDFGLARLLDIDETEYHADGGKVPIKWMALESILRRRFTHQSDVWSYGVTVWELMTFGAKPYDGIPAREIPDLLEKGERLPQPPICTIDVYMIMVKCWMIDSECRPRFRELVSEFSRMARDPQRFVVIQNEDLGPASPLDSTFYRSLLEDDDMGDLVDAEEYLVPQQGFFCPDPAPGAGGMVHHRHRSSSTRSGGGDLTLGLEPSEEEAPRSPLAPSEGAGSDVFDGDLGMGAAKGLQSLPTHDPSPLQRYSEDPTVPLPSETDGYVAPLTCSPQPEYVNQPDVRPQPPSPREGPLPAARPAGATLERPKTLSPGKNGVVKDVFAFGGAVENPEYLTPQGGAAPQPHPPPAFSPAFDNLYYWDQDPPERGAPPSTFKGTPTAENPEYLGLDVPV
Chain of HER3 (P21860 20-1342, species assumed): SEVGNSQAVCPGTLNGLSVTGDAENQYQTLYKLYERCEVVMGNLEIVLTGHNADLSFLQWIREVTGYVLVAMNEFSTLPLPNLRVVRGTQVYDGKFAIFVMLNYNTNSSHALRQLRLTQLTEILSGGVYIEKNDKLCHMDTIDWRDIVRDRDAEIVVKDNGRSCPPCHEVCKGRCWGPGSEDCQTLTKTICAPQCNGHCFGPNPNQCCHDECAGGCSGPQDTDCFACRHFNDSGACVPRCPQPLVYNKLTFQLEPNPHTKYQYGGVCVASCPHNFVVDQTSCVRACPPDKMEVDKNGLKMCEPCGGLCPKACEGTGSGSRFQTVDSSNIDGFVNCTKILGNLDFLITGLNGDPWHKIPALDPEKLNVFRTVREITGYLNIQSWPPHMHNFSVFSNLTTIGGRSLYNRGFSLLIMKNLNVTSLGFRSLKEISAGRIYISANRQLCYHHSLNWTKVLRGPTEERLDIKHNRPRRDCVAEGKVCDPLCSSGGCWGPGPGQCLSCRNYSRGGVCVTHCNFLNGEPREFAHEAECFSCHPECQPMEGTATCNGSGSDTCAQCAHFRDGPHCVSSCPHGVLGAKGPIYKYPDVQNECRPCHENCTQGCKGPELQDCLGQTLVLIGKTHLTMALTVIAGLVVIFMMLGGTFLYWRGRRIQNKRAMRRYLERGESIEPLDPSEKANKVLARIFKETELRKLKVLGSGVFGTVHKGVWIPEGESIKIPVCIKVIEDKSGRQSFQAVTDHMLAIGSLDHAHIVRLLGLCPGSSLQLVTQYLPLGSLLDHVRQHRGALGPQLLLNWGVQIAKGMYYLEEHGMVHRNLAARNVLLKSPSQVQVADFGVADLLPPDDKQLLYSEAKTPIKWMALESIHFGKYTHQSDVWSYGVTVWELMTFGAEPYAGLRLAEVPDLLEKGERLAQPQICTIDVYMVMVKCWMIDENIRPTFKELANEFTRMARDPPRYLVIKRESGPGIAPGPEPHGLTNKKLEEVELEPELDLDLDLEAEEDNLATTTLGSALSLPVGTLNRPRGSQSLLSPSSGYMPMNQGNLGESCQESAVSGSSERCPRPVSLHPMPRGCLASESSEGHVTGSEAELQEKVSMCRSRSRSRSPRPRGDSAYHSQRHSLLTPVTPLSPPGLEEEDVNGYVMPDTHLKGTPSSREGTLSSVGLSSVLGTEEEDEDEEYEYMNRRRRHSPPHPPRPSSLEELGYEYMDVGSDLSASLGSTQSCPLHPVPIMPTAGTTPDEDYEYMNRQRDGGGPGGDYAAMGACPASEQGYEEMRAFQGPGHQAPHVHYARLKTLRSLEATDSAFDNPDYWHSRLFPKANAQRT

As for `COC1CCN(c2nccc(Nc3cc4c(cn3)nc(COCCN3CCN(c5ccc6c(c5)C(=O)N(C5CCC(=O)NC5=O)C6=O)CC3)n4C(C)C)n2)CC1` (stereo not drawn) [Example 71, 2-(2,6-dioxopiperidin-3-yl)-5-(4-(2-((1-isopropyl-6-((2-(4-methoxypiperidin-1-yl)pyrimidin-4-yl)amino)-1H-imidazo[4,5-c]pyridin-2-yl)methoxy)ethyl)piperazin-1-yl)isoindoline-1,3-dione], the concentration for half-maximal inhibition (IC50) in [1] was 30 µM; in test [2], 0.12 µM; in [3], 0.096 µM; in test [4], 13 µM; in [6], greater than 30 µM; in test [7] it was 26 µM. For the same molecule, the IC50 is greater than 30 µM in test [8], 3.1 µM in test [9] and greater than 30 µM in [10]. In test [5], the “EGFR protein remaining, EGFR L858R/T790M double mutant” value is listed as “C (>80% EGFR protein remaining after 72 hours of incubation with the test compound at a concentration of 300 nM)”.
As to `COC1CCN(c2nccc(Nc3cc4c(cn3)nc(COCCOCCOCCOc3ccc5c(c3)C(=O)N(C3CCC(=O)NC3=O)C5=O)n4C(C)C)n2)CC1` (stereo not drawn) [Example 70, 2-(2,6-dioxopiperidin-3-yl)-5-(2-(2-(2-((1-isopropyl-6-((2-(4-methoxypiperidin-1-yl)pyrimidin-4-yl)amino)-1H-imidazo[4,5-c]pyridin-2-yl)methoxy)ethoxy)ethoxy)ethoxy)isoindoline-1,3-dione], the IC50 in test [1] was greater than 30 µM; in [2] it was 15 µM; in test [3], 16 µM; in [4] it was 19 µM; in [7], greater than 30 µM; in test [8] it was greater than 30 µM. Also, the IC50 in test [9] was 11 µM; in test [10], greater than 30 µM. In addition, the “EGFR protein remaining, EGFR L858R/T790M double mutant” value in [5] is reported as “C (>80% EGFR protein remaining after 72 hours of incubation with the test compound at a concentration of 300 nM)”.
As to `COC1CCN(c2nccc(Nc3cc4c(cn3)nc(COCCOCCOCC(=O)N[C@H](C(=O)N3C[C@@H](O)C[C@@H]3C(=O)N[C@@H](C)c3ccc(-c5scnc5C)cc3)C(C)(C)C)n4C(C)C)n2)CC1` [compound 73], the IC50 in [1] is 20 µM; in test [2] it was 11 µM; in [3], 14 µM; in test [4], 3.4 µM; in test [7], 9.8 µM; in test [8], greater than 30 µM. The IC50 was found to be 6.8 µM in [9] and 8.1 µM in [10]. Also, in test [5], the “EGFR protein remaining, EGFR L858R/T790M double mutant” value is given as “C (>80% EGFR protein remaining after 72 hours of incubation with the test compound at a concentration of 300 nM)”.
“(2S,4R)-1-((S,E)-2-(tert-butyl)-16-((4-((4-chloro-3-fluorophenyl)amino)-7-methoxyquinazolin-6-yl)amino)-12-methyl-4,16-dioxo-6,9-dioxa-3,12-diazahexadec-14-enoyl)-4-hydroxy-N-(4-(4-methylthiazol-5-yl)benzyl)pyrrolidine-2-carboxamide [Example 41]”: the “EGFR protein remaining, EGFR-wt” value in test [11] is “A (≤50% EGFR protein remaining after 72 hours of incubation with the test compound at a concentration between 300 nM and 10 nM)”. The “EGFR protein remaining, EGFR-Δ19” value in [12] was “A (≤50% EGFR protein remaining after 72 hours of incubation with the test compound at a concentration between 300 nM and 10 nM)”. In test [5], the “EGFR protein remaining, EGFR L858R/T790M double mutant” value is “B (≤80% and >50% EGFR protein remaining after 72 hours of incubation with the test compound at a concentration between 300 nM and 10 nM)”.
Consider `Cc1ncsc1-c1ccc(CNC(=O)[C@@H]2C[C@@H](O)CN2C(=O)[C@@H](NC(=O)COCCOCCOCCN2CCN(Cc3ccc(-c4cc5c(NCc6ccccc6Cl)ncnc5[nH]4)cc3)CC2)C(C)(C)C)cc1` [Example 1, (2S,4R)-1-((S)-2-(tert-butyl)-14-(4-(4-(4-((2-chlorobenzyl)amino)-7H-pyrrolo[2,3-d]pyrimidin-6-yl)benzyl)piperazin-1-yl)-4-oxo-6,9,12-trioxa-3-azatetradecanoyl)-4-hydroxy-N-(4-(4-methylthiazol-5-yl)benzyl)pyrrolidine-2-carboxamide], for which the IC50 in test [1] came out at 0.065 µM; in [2], 12 µM; in test [3], 4.5 µM; in test [6], 0.23 µM; in test [7], 0.014 µM; in [8] it was 1.2 µM. The IC50 in test [9] turned out to be 6.1 µM; in test [10], 0.0021 µM. Moreover, the “EGFR protein remaining, EGFR-wt” value in [11] is listed as “C (>80% EGFR protein remaining after 72 hours of incubation with the test compound at a concentration of 300 nM)”. For the same molecule, the “EGFR protein remaining, EGFR L858R/T790M double mutant” value in test [5] is reported as “C (>80% EGFR protein remaining after 72 hours of incubation with the test compound at a concentration of 300 nM)”. In addition, the “EGFR protein remaining, EGFR Exon 20 ASV” value in test [13] is listed as “C (>80% EGFR protein remaining after 72 hours of incubation with the test compound at a concentration of 300 nM)”.
On to `COc1cc2ncnc(Nc3ccc(F)c(Cl)c3)c2cc1NC(=O)/C=C/CN(C)CCCOCCCOCC(=O)N[C@H](C(=O)N1CC(O)C[C@@H]1C(=O)NCc1ccc(-c2scnc2C)cc1)C(C)(C)C` (stereo partly drawn) [compound 48], for which the IC50 in [1] worked out at 0.0047 µM; in test [2], 3 µM; in test [3], 7 µM; in [14] it was 20 µM; in [6] it was 0.12 µM. In addition, the “EGFR protein remaining, EGFR-wt” value in test [11] was “B (≤80% and >50% EGFR protein remaining after 72 hours of incubation with the test compound at a concentration between 300 nM and 10 nM)”. The “EGFR protein remaining, EGFR-Δ19” value in [12] was “A (≤50% EGFR protein remaining after 72 hours of incubation with the test compound at a concentration between 300 nM and 10 nM)”. Moreover, the “EGFR protein remaining, EGFR L858R/T790M double mutant” value in test [5] was “B (≤80% and >50% EGFR protein remaining after 72 hours of incubation with the test compound at a concentration between 300 nM and 10 nM)”. The “EGFR protein remaining, EGFR Exon 20 ASV” value in test [13] is given as “C (>80% EGFR protein remaining after 72 hours of incubation with the test compound at a concentration of 300 nM)”.
